From US9642869B2, “Boronic acid derivatives and therapeutic uses thereof” (Rempex Pharmaceuticals, Inc., priority 2013, dated 2017)
Like-named read-outs stand apart in the source and are kept apart here.

Tests used:
OXA-48 = OXA-48 (Klebsiella pneumoniae, UniProt Q6XEC0); assay: Inhibition of nitrocefin cleavage by purified enzyme (Ki); type: biochemical; details: nitrocefin reporter substrate, 10 min preincubation; read-out: Ki (OXA-48, NCF)
Summary of the method: (§1)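 Steps: enzyme plus inhibitor dilutions in reaction buffer; 10 min at room temperature; add nitrocefin; read absorbance at 490 nm each 10 sec for 10 min.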

SHV-12 = SHV-12 (Klebsiella pneumoniae, UniProt P0AD64, E235K/G234S/L31Q); assay: as above; type: biochemical
Summary of the method: as §1

OXA-48 KP1086 = assay: Biapenem potentiation (MPC@1); type: cell-based; details: minimum BLI concentration inhibiting growth with 1 μg/mL biapenem
Procedure: (§2) Biapenem was present in the test medium at 1 μg/mL. […] Table 3 summarizes the BLI potency of biapenem potentiation (MPC@1) for two strains overexpressing class A (KPC) and class D (OXA-48) carbapenemases. Biapenem MIC for each strain is also shown.

KP1004 KPC-2 = assay: Biapenem potentiation (MPC@1); type: cell-based; details: minimum BLI concentration inhibiting growth with 1 μg/mL biapenem
Procedure: as §2

ECL1002 [1] = assay: Aztreonam potentiation (MPC@4); type: cell-based; details: minimum BLI concentration inhibiting growth with 4 μg/mL aztreonam
KPC-2 KP1004 = assay: Aztreonam potentiation (MPC@4); type: cell-based; details: minimum BLI concentration inhibiting growth with 4 μg/mL aztreonam
ECL1002 [2] = type: cell-based; details: for TIG MPC4 ECL1002: minimum BLI concentration inhibiting growth with tigemonam at 4 μg/mL
CTX-M-14 KP1005 [3] = type: cell-based
SHV-5 ec308 [4] = assay: Aztreonam potentiation (MPC@4); type: cell-based; details: minimum BLI concentration inhibiting growth with 4 μg/mL aztreonam
CTX-M-15 KP1009 [5] = type: cell-based
SHV-5 ec308 [6] = type: cell-based; details: for TIG MPC4 SHV-5 ec308: minimum BLI concentration inhibiting growth with tigemonam at 4 μg/mL
CTX-M-15 KP1009 [7] = assay: Aztreonam potentiation (MPC@4); type: cell-based; details: minimum BLI concentration inhibiting growth with 4 μg/mL aztreonam
[8] = Intravenous pharmacokinetics; type: in vivo; details: rat, plasma, rats, IV infusion over 0.5 hours, read-out: Free Cl (converted)
Procedure: Rats (n=3 per compound) were administered by a single infusion. IV doses were infused over 0.5 hours via an indwelling femoral vein cannula. Plasma (˜0.3 mL) samples were collected from each rat at designated time points up to 24 hours. Blood samples were centrifuged within 5 min of collection at 12000 g for 5 min to obtain plasma. The plasma samples were stored at −80° C. until analyzed. Data were analyzed using WinNonlin.

CMY-6 EC1010 [9] = assay: Aztreonam potentiation (MPC@4); type: cell-based; details: minimum BLI concentration inhibiting growth with 4 μg/mL aztreonam
[10] = Salt/complex formation to maintain the monomeric form (solution pH, monomer by HPLC); type: physicochemical
Procedure: The effect of additives that would form a salt or complex with the boronic acid derivatives was evaluated in order to identify those that would strongly favor the monomeric form at an acceptable pH for IV infusion (pH 4-8). […] The pH of the resulting homogeneous solution was measured with a pH meter and the purity was monitored by HPLC. Several bases and complexing agents were screened to identify those that would afford the highest monomer content as salt/complex with a desired pH. […] Oligomerization was more pronounced at higher concentrations with some bases and complexing agents. Among all the bases screened, the meglumine complex gave the highest percentage of monomeric form at the desired pH.

TEM-10 ec302 [11] = type: cell-based
CTX-M-14 = CTX-M-14 (Escherichia coli, UniProt Q9L5C7); assay: Inhibition of nitrocefin cleavage by purified enzyme (Ki); type: biochemical; details: nitrocefin reporter substrate, 10 min preincubation; read-out: Ki (CTX-M-14, NCF)
Summary of the method: as §1

P99 = P99 (Enterobacter cloacae, UniProt P05364); assay: as above; type: biochemical; details: nitrocefin reporter substrate, 10 min preincubation; read-out: Ki (P99, NCF)
Summary of the method: as §1

KPC-2 = KPC-2 (Klebsiella pneumoniae, UniProt Q9F663); assay: as above; type: biochemical; details: nitrocefin reporter substrate, 10 min preincubation; read-out: Ki (KPC-2, NCF)
Summary of the method: as §1

CTX-M-14 KP1005 [12] = assay: Aztreonam potentiation (MPC@4); type: cell-based; details: minimum BLI concentration inhibiting growth with 4 μg/mL aztreonam
TEM-10 ec302 [13] = assay: Aztreonam potentiation (MPC@4); type: cell-based; details: minimum BLI concentration inhibiting growth with 4 μg/mL aztreonam
CMY-6 EC1010 [14] = type: cell-based
[15] = Compound 13 2 mg/mL in water, Pyridine-2-methanol, 2 equivalents
[16] = Compound 13 3 mg/mL in water, L-Lysine, 2 equivalents
[17] = Compound 13 10 mg/mL in water, 0.5N NaOH, 1 equivalent
[18] = Compound 13 10 mg/mL in water, 0.5N NaOH, 2 equivalents
[19] = Compound 13 10 mg/mL in water, Diethanolamine, 2 equivalents
[20] = Compound 13 10 mg/mL in water, Ethanolamine, 2 equivalents
[21] = Compound 13 10 mg/mL in water, Tris, 2 equivalents
[22] = Compound 13 50 mg/mL in water, Tris, 2 equivalents
[23] = Compound 13 50 mg/mL in water, Tris, 3 equivalents

Chain of SHV-12 (P0AD64 22-286 L31Q/G234S/E235K): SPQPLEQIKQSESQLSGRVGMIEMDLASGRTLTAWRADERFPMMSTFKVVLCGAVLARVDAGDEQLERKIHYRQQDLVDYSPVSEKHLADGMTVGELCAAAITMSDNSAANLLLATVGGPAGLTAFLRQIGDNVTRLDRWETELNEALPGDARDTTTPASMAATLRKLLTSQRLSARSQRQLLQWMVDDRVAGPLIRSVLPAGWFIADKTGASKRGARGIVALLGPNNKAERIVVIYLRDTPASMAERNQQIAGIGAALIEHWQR
Chain of OXA-48 (Q6XEC0 23-265 limits assumed): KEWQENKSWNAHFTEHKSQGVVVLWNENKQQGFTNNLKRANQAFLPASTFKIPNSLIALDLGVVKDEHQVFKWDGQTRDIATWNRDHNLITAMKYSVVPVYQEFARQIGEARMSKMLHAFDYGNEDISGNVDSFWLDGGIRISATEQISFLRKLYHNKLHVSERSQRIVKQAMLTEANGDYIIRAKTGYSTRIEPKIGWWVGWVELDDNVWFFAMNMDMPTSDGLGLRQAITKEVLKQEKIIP
Chain of KPC-2 (Q9F663 25-293 limits assumed): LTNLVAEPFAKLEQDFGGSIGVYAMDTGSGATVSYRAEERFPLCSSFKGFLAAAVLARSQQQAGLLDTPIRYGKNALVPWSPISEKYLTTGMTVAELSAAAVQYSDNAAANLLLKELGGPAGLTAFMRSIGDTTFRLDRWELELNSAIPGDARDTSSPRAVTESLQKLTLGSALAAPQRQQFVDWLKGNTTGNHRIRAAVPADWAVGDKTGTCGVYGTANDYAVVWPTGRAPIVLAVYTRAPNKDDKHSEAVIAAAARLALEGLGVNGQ
Chain of P99 (P05364 21-381): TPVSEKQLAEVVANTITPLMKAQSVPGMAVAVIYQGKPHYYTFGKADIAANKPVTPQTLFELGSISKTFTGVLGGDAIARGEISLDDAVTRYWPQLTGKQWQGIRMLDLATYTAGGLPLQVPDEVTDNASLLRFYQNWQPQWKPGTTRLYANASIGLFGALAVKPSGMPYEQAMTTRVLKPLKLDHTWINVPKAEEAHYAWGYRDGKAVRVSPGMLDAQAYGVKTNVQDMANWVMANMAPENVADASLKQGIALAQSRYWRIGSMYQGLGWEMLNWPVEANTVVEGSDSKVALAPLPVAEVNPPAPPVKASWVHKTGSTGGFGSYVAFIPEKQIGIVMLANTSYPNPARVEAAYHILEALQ
Chain of CTX-M-14 (Q9L5C7 entry or part of it): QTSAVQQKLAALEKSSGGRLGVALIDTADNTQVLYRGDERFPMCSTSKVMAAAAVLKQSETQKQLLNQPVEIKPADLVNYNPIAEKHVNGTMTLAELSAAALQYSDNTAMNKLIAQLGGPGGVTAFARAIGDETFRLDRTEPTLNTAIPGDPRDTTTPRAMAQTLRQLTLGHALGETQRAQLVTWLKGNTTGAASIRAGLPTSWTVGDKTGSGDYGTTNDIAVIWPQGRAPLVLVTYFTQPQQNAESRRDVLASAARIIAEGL

NC(=O)CC(=O)N[C@H]1Cc2cccc(C(=O)O)c2OB1O [Compound 16, (R)-3-(3-amino-3-oxopropanamido)-2-hydroxy-3,4-dihydro-2H-benzo[e][1,2]oxaborinine-8-carboxylic acid]
Ki (OXA-48): < 1 nM | Ki (SHV-12; nitrocefin reporter substrate, 10 min preincubation, read-out: Ki (SHV-12, NCF)): < 1 nM | BPM MPC1 OXA-48 KP1086 (OXA-48 KP1086): Y (MIC of 1 μg/mL to 10 μg/mL) | BPM MPC1 KP1004 KPC-2 (KP1004 KPC-2): X (MIC of less than 1 μg/mL) | AZT MPC4 ECL1002 (ECL1002 [1]): X (MIC of less than 1 μg/mL) | AZT MPC4 KPC-2 KP1004 (KPC-2 KP1004): Y (MIC of 1 μg/mL to 10 μg/mL) | TIG MPC4 ECL1002 (ECL1002 [2]): X (MIC of less than 1 μg/mL) | TIG MPC4 CTX-M-14 KP1005 (CTX-M-14 KP1005 [3]): Y (key: X: MIC of less than 1 μg/mL; Y: MIC of 1 μg/mL to 10 μg/mL; Z: MIC of greater than 10 μg/mL) | AZT MPC4 SHV-5 ec308 (SHV-5 ec308 [4]): X (MIC of less than 1 μg/mL) | TIG MPC4 CTX-M-15 KP1009 (CTX-M-15 KP1009 [5]): X (key: X: MIC of less than 1 μg/mL; Y: MIC of 1 μg/mL to 10 μg/mL; Z: MIC of greater than 10 μg/mL) | TIG MPC4 SHV-5 ec308 (SHV-5 ec308 [6]): Y (MIC of 1 μg/mL to 10 μg/mL) | AZT MPC4 CTX-M-15 KP1009 (CTX-M-15 KP1009 [7]): X (MIC of less than 1 μg/mL) | clearance ([8]; dose 10 mg/kg): 14.5 mL/min/kg | AZT MPC4 CMY-6 EC1010 (CMY-6 EC1010 [9]): X (MIC of less than 1 μg/mL)

CSCC(=O)N[C@H]1Cc2cccc(C(=O)O)c2OB1O [Compound 13, (R)-2-hydroxy-3-(2-(methylthio)acetamido)-3,4-dihydro-2H-benzo[e][1,2]oxaborinine-8-carboxylic acid]
BPM MPC1 OXA-48 KP1086 (OXA-48 KP1086): Y (MIC of 1 μg/mL to 10 μg/mL) | BPM MPC1 KP1004 KPC-2 (KP1004 KPC-2): X (MIC of less than 1 μg/mL) | AZT MPC4 ECL1002 (ECL1002 [1]): X (MIC of less than 1 μg/mL) | AZT MPC4 KPC-2 KP1004 (KPC-2 KP1004): X (MIC of less than 1 μg/mL) | TIG MPC4 ECL1002 (ECL1002 [2]): X (MIC of less than 1 μg/mL) | TIG MPC4 CTX-M-14 KP1005 (CTX-M-14 KP1005 [3]): X (key: X: MIC of less than 1 μg/mL; Y: MIC of 1 μg/mL to 10 μg/mL; Z: MIC of greater than 10 μg/mL) | AZT MPC4 SHV-5 ec308 (SHV-5 ec308 [4]): X (MIC of less than 1 μg/mL) | TIG MPC4 CTX-M-15 KP1009 (CTX-M-15 KP1009 [5]): X (key: X: MIC of less than 1 μg/mL; Y: MIC of 1 μg/mL to 10 μg/mL; Z: MIC of greater than 10 μg/mL) | TIG MPC4 SHV-5 ec308 (SHV-5 ec308 [6]): X (MIC of less than 1 μg/mL) | AZT MPC4 CTX-M-15 KP1009 (CTX-M-15 KP1009 [7]): X (MIC of less than 1 μg/mL) | clearance ([8]; dose 20 mg/kg): 41.2 mL/min/kg | AZT MPC4 CMY-6 EC1010 (CMY-6 EC1010 [9]): X (MIC of less than 1 μg/mL) | Monomer purity by HPLC (%) [10, 15]: 78% | pH [10, 15]: 5.5 | Monomer purity by HPLC (%) [10, 16]: 97.3% | pH [10, 16]: 8.9 | Monomer purity by HPLC (%) [10, 17]: 51.3% | pH [10, 17]: 7.3 | Monomer purity by HPLC (%) [10, 18]: 60.9% | pH [10, 18]: 8.4 | Monomer purity by HPLC (%) [10, 19]: 92.2% | pH [10, 19]: 11 | Monomer purity by HPLC (%) [10, 20]: 97.1% | pH [10, 20]: 11 | pH ([10]; Compound 13 10 mg/mL in water, Meglumine, 2 equivalents): 7.1 | Monomer purity by HPLC (%) [10, 21]: 94.7% | pH [10, 21]: 7.8 | pH ([10]; Compound 13 50 mg/mL in water, Meglumine, 2 equivalents): 7.2 | Monomer purity by HPLC (%) [10, 22]: 89.7% | pH [10, 22]: 7.7 | Monomer purity by HPLC (%) [10, 23]: 95.4% | pH [10, 23]: 8.5 | TIG MPC4 TEM-10 ec302 (TEM-10 ec302 [11]): Y (key: X: MIC of less than 1 μg/mL; Y: MIC of 1 μg/mL to 10 μg/mL; Z: MIC of greater than 10 μg/mL)

CNC(=O)CC(=O)N[C@H]1Cc2cccc(C(=O)O)c2OB1O [Compound 21, (R)-2-hydroxy-3-(3-(methylamino)-3-oxopropanamido)-3,4-dihydro-2H-benzo[e][1,2]oxaborinine-8-carboxylic acid]
Ki (CTX-M-14): 1 to 10 nM | Ki (OXA-48): < 1 nM | Ki (P99): 1 to 10 nM | Ki (SHV-12): < 1 nM | Ki (KPC-2): > 10 nM | AZT MPC4 CTX-M-14 KP1005 (CTX-M-14 KP1005 [12]): Y (MIC of 1 μg/mL to 10 μg/mL) | BPM MPC1 OXA-48 KP1086 (OXA-48 KP1086): Y (MIC of 1 μg/mL to 10 μg/mL) | BPM MPC1 KP1004 KPC-2 (KP1004 KPC-2): X (MIC of less than 1 μg/mL) | AZT MPC4 ECL1002 (ECL1002 [1]): X (MIC of less than 1 μg/mL) | AZT MPC4 KPC-2 KP1004 (KPC-2 KP1004): Y (MIC of 1 μg/mL to 10 μg/mL) | TIG MPC4 ECL1002 (ECL1002 [2]): X (MIC of less than 1 μg/mL) | TIG MPC4 CTX-M-14 KP1005 (CTX-M-14 KP1005 [3]): Y (key: X: MIC of less than 1 μg/mL; Y: MIC of 1 μg/mL to 10 μg/mL; Z: MIC of greater than 10 μg/mL) | AZT MPC4 SHV-5 ec308 (SHV-5 ec308 [4]): X (MIC of less than 1 μg/mL) | TIG MPC4 CTX-M-15 KP1009 (CTX-M-15 KP1009 [5]): Y (key: X: MIC of less than 1 μg/mL; Y: MIC of 1 μg/mL to 10 μg/mL; Z: MIC of greater than 10 μg/mL) | TIG MPC4 SHV-5 ec308 (SHV-5 ec308 [6]): Y (MIC of 1 μg/mL to 10 μg/mL) | AZT MPC4 TEM-10 ec302 (TEM-10 ec302 [13]): Y (MIC of 1 μg/mL to 10 μg/mL) | AZT MPC4 CTX-M-15 KP1009 (CTX-M-15 KP1009 [7]): X (MIC of less than 1 μg/mL) | TIG MPC4 CMY-6 EC1010 (CMY-6 EC1010 [14]; minimum BLI concentration inhibiting growth with tigemonam at 4 μg/mL): X (MIC of less than 1 μg/mL) | AZT MPC4 CMY-6 EC1010 (CMY-6 EC1010 [9]): X (MIC of less than 1 μg/mL)

CC1(C)[C@H](NC(=O)/C(=N\OCC(=O)O)c2csc(N)n2)C(=O)N1OS(=O)(=O)O [Tigemonam, reference compound]
Tigemonam MIC (ECL1002 [2]; strain ECL1002, tigemonam alone): 32 µg/mL | Tigemonam MIC (CTX-M-14 KP1005 [3]; strain CTX-M-14 KP1005, tigemonam alone): >64 µg/mL | Tigemonam MIC (CTX-M-15 KP1009 [5]; strain CTX-M-15 KP1009, tigemonam alone): >64 µg/mL | Tigemonam MIC (SHV-5 ec308 [6]; strain SHV-5 ec308, tigemonam alone): >64 µg/mL | Tigemonam MIC (CMY-6 EC1010 [14]; strain CMY-6 EC1010, tigemonam alone): 16 µg/mL | Tigemonam MIC (TEM-10 ec302 [11]; strain TEM-10 ec302, tigemonam alone): >64 µg/mL
